Experimental data reported in patent publication US10828315B2 (Madrigal Pharmaceuticals, Inc., priority 2013, dated 2020).

Columns and labels:
[1] = system: human urinary bladder cancer cell line SW780; experiment: Cytotoxicity assay (CellTiter-Glo, 72 h), SW780; assay type: cell-based; conditions: SW780, 72 hours, read-out: Cytotoxicity (IC50, nM) SW-780
Description: Cytotoxicity of SDC-TRAP molecules was determined in three cancer cell lines. […] 80 μL of CellTiter-Glo was added to each well, followed by room temperature incubation in the dark for 15 minutes. Cell was determined by luminescence. IC50 was calculated using XLfit™ software.

[2] = Physical appearance of SDC-TRAP-0063 formulations and infusion solutions with different diluents and carbonate buffers; assay type: physicochemical; conditions: for Observations (physical appearance): 5% v/v DMSO
Description: First, a stock solution of SDC-TRAP-0063 was prepared in DMSO at 22 mg/mL, then the required amount of tween 80 was added and mixed well.
The above formulation containing SDC-TRAP-0063 was diluted using either D5W, D5W (pH 10.5, adjusted with 4.55 mM NaOH) or carbonate buffer, pH 10) (final drug concentration.: 1 mg/mL SDC-TRAP-0063, 1.8% v/v Tween 80, 5% v/v DMSO). The physical observations on these solutions were noted before and filtration through 0.22μ PES filter and were further observed for 3 hr. Refer to the table below for summary of observations. Note: Carbonate buffer, pH 10 was prepared by mixing 0.1M sodium carbonate (27.5 mL) and 0.1M sodium bicarbonate (22.5 mL) and qs 200 mL with DIW. The total Na content of carbonate buffer was 39 mM.
A stock solution of SDC-TRAP-0063 was prepared in either DMSO or PEG-300. To prepare formulations containing DMSO and tween 80, required amount of tween 80 added to the stock of DMSO (containing SDC-TRAP-0063). The formulations were then was diluted with carbonate buffer, pH 10 (composition: add and mix 0.1M sodium carbonate (27.5 mL) and 0.1M sodium bicarbonate (22.5 mL) and qs 200 mL with DIW). The samples (prepared in glass vial) were mixed well and observed for physical appearance while stirring on a magnetic stirring plate at ambient. (Note-appropriate amounts of SDC-TRAP-0063, tween 80, DMSO and PEG-300, as applicable were used to prepare the solutions at the desired concentrations and drug concentrations at 1 mg/mL through 5 mg/mL as shown).
Carbonate buffers of different pH (pH 9-10) and ionic strengths (with higher (>2) Na contents that SDC-TRAP-0063 on molar basis) were prepared and used for diluting the DMSO/tween 80 formulation loaded with SDC-TRAP-0063 (as described in earlier section 3). The final concentrations of DMSO and tween 80 in the diluted carbonate buffer were 5% v/v and 1.8% v/v respectively. The drug concentration was kept constant (5 mg/mL) for all diluted samples.

With `CCc1c2c(nc3ccc(OC(=O)N4CCC(CCn5ccc6cc(-n7c(O)nnc7-c7cc(C(C)C)c(O)cc7O)ccc65)CC4)cc13)-c1cc3c(c(=O)n1C2)COC(=O)[C@]3(O)CC` [SDC-TRAP-0063, 4,11-diethyl-4-hydroxy-3,14-dioxo-3,4,12,14-tetrahydro-1H-pyrano[3′,4′:6,7]indolizino[1,2-b]quinolin-9-yl 4-(2-(5-(3-(2,4-dihydroxy-5-isopropylphenyl)-5-hydroxy-4H-1,2,4-triazol-4-yl)-1H-indol-1-yl)ethyl)piperidine-1-carboxylate] the IC50 [1] was 261 nM, the “physical appearance of stock solution” value ([2]; 22 mg/mL in DMSO, and after addition of tween 80) was “clear and homogenous” and the “physical appearance after dilution with carbonate buffer, pH 10” value ([2]; 5% v/v DMSO + […] v/v tween 80, 1-5 mg/mL) was “clear at 2 hr of stirring”. For the same compound, the “Observations (physical appearance)” value ([2]; […] v/v Tween 80, carbonate buffer pH 10 (39 mM Na), 1 mg/mL, 30 min) was “Clear”, the “Observations (physical appearance)” value ([2]; […] v/v Tween 80, carbonate buffer pH 10 (39 mM Na), 1 mg/mL, 1 h) was “Clear” and the “Observations (physical appearance)” value ([2]; […] v/v Tween 80, carbonate buffer pH 10 (39 mM Na), 1 mg/mL, 2 h) was “Clear”. For the same compound, the “Observations (physical appearance)” value ([2]; […] v/v Tween 80, carbonate buffer pH 10 (39 mM Na), 1 mg/mL, Initial) was “Clear”, the “Observations (physical appearance)” value ([2]; […] v/v Tween 80, carbonate buffer pH 10 (39 mM Na), 1 mg/mL, Overnight) was “Clear” and the “Observations (physical appearance)” value ([2]; […] v/v Tween 80, carbonate buffer pH 10 (39 mM Na), 2 mg/mL, 30 min) was “Clear”. The “Observations (physical appearance)” value ([2]; […] v/v Tween 80, carbonate buffer pH 10 (39 mM Na), 2 mg/mL, 1 h) was “Clear”, the “Observations (physical appearance)” value ([2]; […] v/v Tween 80, carbonate buffer pH 10 (39 mM Na), 2 mg/mL, 2 h) was “Clear” and the “Observations (physical appearance)” value ([2]; […] v/v Tween 80, carbonate buffer pH 10 (39 mM Na), 2 mg/mL, Initial) was “Clear”. The “Observations (physical appearance)” value ([2]; […] v/v Tween 80, carbonate buffer pH 10 (39 mM Na), 2 mg/mL, Overnight) was “Clear”, the “Observations (physical appearance)” value ([2]; […] v/v Tween 80, carbonate buffer pH 10 (39 mM Na), 3 mg/mL, 30 min) was “Cloudy” and the “Observations (physical appearance)” value ([2]; […] v/v Tween 80, carbonate buffer pH 10 (39 mM Na), 3 mg/mL, 1 h) was “Clear”. The “Observations (physical appearance)” value ([2]; […] v/v Tween 80, carbonate buffer pH 10 (39 mM Na), 3 mg/mL, 2 h) was “Clear”, the “Observations (physical appearance)” value ([2]; […] v/v Tween 80, carbonate buffer pH 10 (39 mM Na), 3 mg/mL, Initial) was “Cloudy” and the “Observations (physical appearance)” value ([2]; […] v/v Tween 80, carbonate buffer pH 10 (39 mM Na), 3 mg/mL, Overnight) was “Clear”. For the same compound, the “Observations (physical appearance)” value ([2]; […] v/v Tween 80, carbonate buffer pH 10 (39 mM Na), 4 mg/mL, 30 min) was “Cloudy”, the “Observations (physical appearance)” value ([2]; […] v/v Tween 80, carbonate buffer pH 10 (39 mM Na), 4 mg/mL, 1 h) was “Cloudy” and the “Observations (physical appearance)” value ([2]; […] v/v Tween 80, carbonate buffer pH 10 (39 mM Na), 4 mg/mL, 2 h) was “Clear”. For the same compound, the “Observations (physical appearance)” value ([2]; […] v/v Tween 80, carbonate buffer pH 10 (39 mM Na), 4 mg/mL, Initial) was “Cloudy”, the “Observations (physical appearance)” value ([2]; […] v/v Tween 80, carbonate buffer pH 10 (39 mM Na), 4 mg/mL, Overnight) was “Clear” and the “Observations (physical appearance)” value ([2]; […] v/v Tween 80, carbonate buffer pH 10 (39 mM Na), 5 mg/mL, 30 min) was “Cloudy”. For the same compound, the “Observations (physical appearance)” value ([2]; […] v/v Tween 80, carbonate buffer pH 10 (39 mM Na), 5 mg/mL, 1 h) was “Cloudy”, the “Observations (physical appearance)” value ([2]; […] v/v Tween 80, carbonate buffer pH 10 (39 mM Na), 5 mg/mL, 2 h) was “Clear” and the “Observations (physical appearance)” value ([2]; […] v/v Tween 80, carbonate buffer pH 10 (39 mM Na), 5 mg/mL, Initial) was “Cloudy”. The “Observations (physical appearance)” value ([2]; […] v/v Tween 80, carbonate buffer pH 10 (39 mM Na), 5 mg/mL, Overnight) was “Clear”, the “Observations (physical appearance)” value ([2]; […] v/v Tween 80, 5 mg/mL, Carbonate buffer, pH 9.2 (25 mM Na), 1 h) was “Cloudy” and the “Observations (physical appearance)” value ([2]; […] v/v Tween 80, 5 mg/mL, Carbonate buffer, pH 9.2 (25 mM Na), 2 h) was “Cloudy”. For the same compound, the “Observations (physical appearance)” value ([2]; […] v/v Tween 80, 5 mg/mL, Carbonate buffer, pH 9.2 (25 mM Na), 3 h) was “Cloudy”, the “Observations (physical appearance)” value ([2]; […] v/v Tween 80, 5 mg/mL, Carbonate buffer, pH 9.2 (25 mM Na), Initial) was “Cloudy” and the “Observations (physical appearance)” value ([2]; […] v/v Tween 80, 5 mg/mL, Carbonate buffer, pH 9.2 (25 mM Na), Overnight) was “Cloudy”. The “Observations (physical appearance)” value ([2]; […] v/v Tween 80, 5 mg/mL, Carbonate buffer, pH 9.5 (26.5 mM Na), 1 h) was “Cloudy”, the “Observations (physical appearance)” value ([2]; […] v/v Tween 80, 5 mg/mL, Carbonate buffer, pH 9.5 (26.5 mM Na), 2 h) was “Cloudy” and the “Observations (physical appearance)” value ([2]; […] v/v Tween 80, 5 mg/mL, Carbonate buffer, pH 9.5 (26.5 mM Na), 3 h) was “Cloudy”. For the same compound, the “Observations (physical appearance)” value ([2]; […] v/v Tween 80, 5 mg/mL, Carbonate buffer, pH 9.5 (26.5 mM Na), Initial) was “Cloudy”, the “Observations (physical appearance)” value ([2]; […] v/v Tween 80, 5 mg/mL, Carbonate buffer, pH 9.5 (26.5 mM Na), Overnight) was “Cloudy” and the “Observations (physical appearance)” value ([2]; […] v/v Tween 80, 5 mg/mL, Carbonate buffer, pH 9.5 ([…] Na), 1 h) was “Cloudy”. For the same compound, the “Observations (physical appearance)” value ([2]; […] v/v Tween 80, 5 mg/mL, Carbonate buffer, pH 9.5 ([…] Na), 2 h) was “Cloudy”, the “Observations (physical appearance)” value ([2]; […] v/v Tween 80, 5 mg/mL, Carbonate buffer, pH 9.5 ([…] Na), 3 h) was “Clear” and the “Observations (physical appearance)” value ([2]; […] v/v Tween 80, 5 mg/mL, Carbonate buffer, pH 9.5 ([…] Na), Initial) was “Cloudy”. For the same compound, the “Observations (physical appearance)” value ([2]; […] v/v Tween 80, 5 mg/mL, Carbonate buffer, pH 9.5 ([…] Na), Overnight) was “Clear”, the “Observations (physical appearance)” value ([2]; […] v/v Tween 80, 5 mg/mL, Carbonate buffer, pH 10 (39 mM Na), 1 h) was “Cloudy” and the “Observations (physical appearance)” value ([2]; […] v/v Tween 80, 5 mg/mL, Carbonate buffer, pH 10 (39 mM Na), 2 h) was “Clear yellow”. The “Observations (physical appearance)” value ([2]; […] v/v Tween 80, 5 mg/mL, Carbonate buffer, pH 10 (39 mM Na), 3 h) was “Clear yellow”, the “Observations (physical appearance)” value ([2]; […] v/v Tween 80, 5 mg/mL, Carbonate buffer, pH 10 (39 mM Na), Initial) was “Cloudy” and the “Observations (physical appearance)” value ([2]; […] v/v Tween 80, 5 mg/mL, Carbonate buffer, pH 10 (39 mM Na), Overnight) was “Clear yellow”. The “Observations (physical appearance)” value ([2]; […] v/v Tween 80, 5 mg/mL, Carbonate buffer, pH 10 (155 mM Na), 1 h) was “Clear”, the “Observations (physical appearance)” value ([2]; […] v/v Tween 80, 5 mg/mL, Carbonate buffer, pH 10 (155 mM Na), 2 h) was “Clear yellow” and the “Observations (physical appearance)” value ([2]; […] v/v Tween 80, 5 mg/mL, Carbonate buffer, pH 10 (155 mM Na), 3 h) was “Clear yellow”. For the same compound, the “Observations (physical appearance)” value ([2]; […] v/v Tween 80, 5 mg/mL, Carbonate buffer, pH 10 (155 mM Na), Initial) was “Cloudy”, the “Observations (physical appearance)” value ([2]; […] v/v Tween 80, 5 mg/mL, Carbonate buffer, pH 10 (155 mM Na), Overnight) was “Clear yellow” and the “Observations (physical appearance)” value ([2]; carbonate buffer pH 10 (39 mM Na), 1 mg/mL, 30 min) was “Cloudy”. For the same compound, the “Observations (physical appearance)” value ([2]; carbonate buffer pH 10 (39 mM Na), 1 mg/mL, 1 h) was “Cloudy”, the “Observations (physical appearance)” value ([2]; carbonate buffer pH 10 (39 mM Na), 1 mg/mL, 6 h) was “Cloudy” and the “Observations (physical appearance)” value ([2]; carbonate buffer pH 10 (39 mM Na), 1 mg/mL, Initial) was “Cloudy”. For the same compound, the “Observations (physical appearance)” value ([2]; carbonate buffer pH 10 (39 mM Na), 1 mg/mL, Overnight) was “Clear yellow solution” and the “Observations (physical appearance)” value ([2]; carbonate buffer pH 10 (39 mM Na), 2 mg/mL, 30 min) was “Cloudy”.
